Laboratory results: patent USRE48842E1, “Pyrimido-pyrrolo-oxazine-dione compound inhibitors of the cystic fibrosis transmembrane conductance regulator protein and uses therefor” (The Regents of the University of California, priority 2011, dated 2021)
pIC50: −log10 of the molar value.

Experiments:
[1] = In vitro metabolism in hepatic microsomes (LC/MS); type: in vitro ADME, rat; details: in the presence of NADPH
Description: (§1) In Vitro Metabolism in Hepatic Microsomes—A compound of structure (I) was incubated for specified times at 37° C. with rat liver microsomes (e.g., 1 mg protein/ml; Sigma-Aldrich, St. Louis, Mo.) in potassium phosphate buffer (100 mM) containing NADPH (0 or 1 mM). The mixture was then chilled on ice, and 0.5 ml of ice-cold ethyl acetate was added. Samples were centrifuged for 15 min at 3,000 rpm, and the supernatant was evaporated to dryness under nitrogen. The residue was dissolved in 150 μl mobile phase (acetonitrile:water 3:1, containing 0.1% formic acid) for LC/MS analysis. Reverse-phase HPLC separations were carried out using a Waters C18 column (2.1×100 mm, […]) equipped with a solvent delivery system (Waters model 2690, Milford, Mass.). The solvent system consisted of a linear gradient from 5 to 95% acetonitrile run over 16 min (0.2 mL/min flow rate). Mass spectra were acquired on an Alliance HT 2790+ZQ mass spectrometer using negative ion detection.
as §1, with “Liquid Chromatography/Mass Spectrometry—Compounds (each at 5 μM) were” for “In Vitro Metabolism in Hepatic Microsomes—A compound of structure (I) was”, “(1” for “(e.g., 1”, “150” for “150 μl”, “detection, scanning from 150 to 1500 Da. The electrospray ion source parameters were as follows: capillary voltage 3.5 kV (positive ion mode), cone voltage 37 V, source temperature 120° C., desolvation temperature 250° C., cone gas flow 25 L/h, and dessolvation gas flow 350 L/h.” for “detection.”
PPQ-102 is a small-molecule inhibitor of CFTR chloride conductance with efficacy in preventing and reversing cyst formation in an organ culture model of PKD (see, e.g., Tradtrantip et al., J. Med. Chem. 2009, supra; Int'l Patent Appl. Publication No. WO 2011/019737). Preliminary analysis of the metabolic stability and aqueous solubility of PPQ-102, indicated poorer metabolic stability and lower water solubility (˜2 μM in albumin-free saline) than desired for optimal drugability. In vitro metabolic stability was determined by compound incubation with hepatic microsomes at 37° C. for specified times in the absence vs. presence of NADPH, following by LC/MS analysis. Shown in FIG. 6A is PPQ-102 disappearance in hepatic microsomes in the presence of NADPH, with ˜60% disappearance in 30 min.

human wildtype CFTR [2] = biological target: T1, human wildtype CFTR (Homo sapiens, UniProt P13569); test: Fluorescence plate reader assay of CFTR inhibition (iodide influx); type: cell-based; set-up: expressed in transfected cells; host or cells: Fischer rat thyroid (FRT) cells; details: Determined by micro-plate reader assay; FRT cells co-expressing human wild type CFTR and YFP-H148Q
Description: Cell Culture and Plate Reader Assay of CFTR Inhibition—Fischer rat thyroid (FRT) cells co-expressing human wild type CFTR and the halide indicator YFP-H148Q were cultured in 96-well black-walled microplates (Corning Costar) at a density of 20,000 cells per well in Coon's modified F12 medium containing 10% fetal bovine serum, 2 mM L-glutamine, 100 U/mL penicillin and 100 μg/mL streptomycin. CFTR chloride conductance was assayed at 48 h after plating on a FluoStar fluorescence plate reader (BMG Lab Technologies) as described (see, e.g., Ma et al., J Clin Invest. 2002, supra). Each well was washed 3 times with PBS, leaving 60 μL PBS. Test compounds were added and incubated with the cells for 45 min. Then, 5 μL of a CFTR-activating cocktail (10 μM forskolin, 100 μM IBMX, 20 μM apigenin in PBS) was added. After 15 min, each well was assayed for iodide influx by recording fluorescence continuously (200 ms per point) for 2 s (baseline) and then for 10 s after rapid addition of 160 μL of isosmolar PBS in which 137 mM chloride was replaced by iodide. The initial rate of iodide influx was computed from fluorescence data by non-linear regression.
Initial testing of the compounds for the capability to inhibit CFTR was performed using a plate-reader assay in which iodide influx was measured in FRT cells co-expressing human wild type CFTR and the iodide-sensing yellow fluorescent protein YFP-H148Q/1152L. […] Table B below provides IC50 values for PPQ and BPO compounds.
The relative IC50 values obtained from the plate reader assay are useful for comparisons. Absolute IC50 values obtained from the plate-reader assay are approximate, generally underestimating compound potency because of assay non-linearities, pH-dependent YFP fluorescence, the use of iodide instead of chloride, and compound dilution at the start of the assay (see, e.g., Galietta et al., Am. J. Physiol. Cell Physiol. 281:C1734-42 (2001)).

human wildtype CFTR [3] = biological target: T1, human wildtype CFTR; test: Short-circuit current analysis of CFTR inhibition in CFTR-expressing FRT cells; type: cell-based; set-up: expressed in transfected cells; host or cells: Fischer rat thyroid (FRT) epithelial cells on Snapwell inserts; details: Determined by short-circuit current assay; read-out: IC50 (μM)^B
Description: Short-Circuit Current—Snapwell inserts containing CFTR-expressing FRT cells were mounted in an Ussing chamber. The hemichambers contained 5 mL of buffer containing 75 mM NaCl and 75 mM Na gluconate (apical) and 150 mM NaCl (basolateral) (pH 7.3), and the basolateral membrane was permeabilized with 250 μg/mL amphotericin B, as described (see, e.g., Sonawane et al., FASEB J 2006, supra). Short-circuit current was recorded continuously using a DVC-1000 voltage clamp (World Precision Instruments) using Ag/AgCl electrodes and 3 M KCl agar bridges.
Current was measured in CFTR-expressing FRT cells in which the basolateral membrane was permeabilized and in the presence of a transepithelial chloride concentration gradient, so that current is a quantitative linear measure of CFTR function. CFTR was activated by forskolin, followed by serial additions of increasing concentrations of test compounds.
CFTR inhibition potency was measured by short-circuit current analysis in FRT epithelial cells expressing human CFTR in presence of a transepithelial chloride gradient and in which the basolateral membrane was permeabilized with amphotericin B. Under these conditions short-circuit current is proportional to CFTR chloride conductance.

T1 sequence (P13569 whole entry): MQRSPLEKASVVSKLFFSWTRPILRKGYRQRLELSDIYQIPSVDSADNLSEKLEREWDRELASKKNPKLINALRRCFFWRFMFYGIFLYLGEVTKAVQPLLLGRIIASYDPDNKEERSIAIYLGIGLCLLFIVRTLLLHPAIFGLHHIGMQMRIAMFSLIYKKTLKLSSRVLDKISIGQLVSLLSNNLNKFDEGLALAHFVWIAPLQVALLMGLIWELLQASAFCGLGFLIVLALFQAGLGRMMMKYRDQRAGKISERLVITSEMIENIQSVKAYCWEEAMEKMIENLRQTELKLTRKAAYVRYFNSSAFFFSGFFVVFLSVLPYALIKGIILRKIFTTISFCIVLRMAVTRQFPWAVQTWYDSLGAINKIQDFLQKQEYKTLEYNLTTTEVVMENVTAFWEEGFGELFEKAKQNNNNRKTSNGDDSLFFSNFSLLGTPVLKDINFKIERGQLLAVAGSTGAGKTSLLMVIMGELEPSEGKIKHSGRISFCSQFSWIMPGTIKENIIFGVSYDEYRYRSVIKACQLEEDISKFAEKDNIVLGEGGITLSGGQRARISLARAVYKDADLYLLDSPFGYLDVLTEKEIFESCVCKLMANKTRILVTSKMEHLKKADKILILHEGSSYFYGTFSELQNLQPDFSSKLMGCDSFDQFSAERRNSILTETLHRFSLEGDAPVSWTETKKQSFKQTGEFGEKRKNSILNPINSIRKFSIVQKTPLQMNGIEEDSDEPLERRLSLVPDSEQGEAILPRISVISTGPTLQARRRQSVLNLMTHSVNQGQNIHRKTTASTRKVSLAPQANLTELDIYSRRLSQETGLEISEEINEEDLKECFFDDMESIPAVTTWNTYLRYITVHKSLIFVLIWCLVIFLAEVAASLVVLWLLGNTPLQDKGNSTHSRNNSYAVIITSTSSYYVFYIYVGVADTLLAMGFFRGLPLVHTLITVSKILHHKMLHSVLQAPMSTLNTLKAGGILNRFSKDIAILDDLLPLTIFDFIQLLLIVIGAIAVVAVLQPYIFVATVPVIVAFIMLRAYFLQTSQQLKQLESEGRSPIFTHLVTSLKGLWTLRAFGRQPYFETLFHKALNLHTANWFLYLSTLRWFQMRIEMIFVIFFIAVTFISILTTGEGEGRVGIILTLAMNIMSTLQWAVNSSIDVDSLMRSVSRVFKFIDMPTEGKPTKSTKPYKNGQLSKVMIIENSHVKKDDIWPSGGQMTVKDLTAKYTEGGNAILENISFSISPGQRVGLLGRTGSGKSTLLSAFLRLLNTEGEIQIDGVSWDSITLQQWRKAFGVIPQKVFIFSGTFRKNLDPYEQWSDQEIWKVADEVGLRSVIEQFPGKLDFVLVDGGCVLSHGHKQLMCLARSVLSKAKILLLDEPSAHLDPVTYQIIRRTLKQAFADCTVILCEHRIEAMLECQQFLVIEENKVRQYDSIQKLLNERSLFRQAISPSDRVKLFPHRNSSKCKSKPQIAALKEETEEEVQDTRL

| SMILES | metabolic stability in hepatic microsomes (in words) [1] | pIC50 (human wildtype CFTR [2]) | IC50 (human wildtype CFTR [3]) [µM] |
| --- | --- | --- | --- |
| Cn1c(=O)c2c(-c3ccccc3)n3c(c2n(C)c1=O)C(c1ccc(Br)o1)Oc1ccccc1-3 (stereo not drawn) [BPO-16, 6-(5-Bromofuran-2-yl)-7,9-dimethyl-11-phenyl-6H-benzo[b]pyrimido[4′,5′-3,4]pyrrolo[1,2-d]oxazine-8,10-(7H,9H)-dione] | better stability than PPQ-102 | 6.70 | 0.09 |
| Cn1c(=O)c2c(-c3ccccc3)n3c(c2n(C)c1=O)C(c1ccc(Br)o1)Nc1ccccc1-3 (stereo not drawn) [PPQ-10, 6-(5-Bromofuran-2-yl)-7,9-dimethyl-11-phenyl-5,6-dihydropyrimido[4′,5′-3,4]pyrrolo[1,2-a]quinoxaline-8,10-(7H,9H)-dione] | substantially more stable than PPQ-102 | 7.05 | 0.05 |
